Values joined by “and” are separate entries in the source; they are usually repeats but may differ in a detail not shown here. Equal values may be shown once.
Target: T1, DrOTOP1 A274W (Danio rerio, UniProt Q7ZWK8, A274W)
T1 construct: A previously generated codon-optimized full-length DrOTOP1[8]; (UniProt: Q7ZWK8) construct; expressed in transfected cells; host or cells: HEK-293 (CRL-1573, ATCC)
T1 sequence (Q7ZWK8 1-586 A274W): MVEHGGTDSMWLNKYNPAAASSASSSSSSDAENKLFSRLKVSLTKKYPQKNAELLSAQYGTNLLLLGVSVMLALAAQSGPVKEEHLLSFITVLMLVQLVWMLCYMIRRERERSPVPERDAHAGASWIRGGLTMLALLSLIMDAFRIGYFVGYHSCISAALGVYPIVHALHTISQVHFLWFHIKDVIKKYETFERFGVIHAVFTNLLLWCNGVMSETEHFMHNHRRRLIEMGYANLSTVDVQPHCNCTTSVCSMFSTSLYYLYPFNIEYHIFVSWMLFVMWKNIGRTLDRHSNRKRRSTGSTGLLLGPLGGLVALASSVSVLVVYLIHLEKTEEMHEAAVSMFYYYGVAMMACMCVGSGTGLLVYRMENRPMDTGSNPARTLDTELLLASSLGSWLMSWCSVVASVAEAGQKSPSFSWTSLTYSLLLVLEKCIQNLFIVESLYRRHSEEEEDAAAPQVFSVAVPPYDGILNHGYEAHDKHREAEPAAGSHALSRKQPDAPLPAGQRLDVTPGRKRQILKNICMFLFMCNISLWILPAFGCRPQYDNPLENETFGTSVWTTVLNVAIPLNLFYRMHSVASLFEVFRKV
Assay: Whole-cell patch-clamp, inhibition of acid-evoked currents, DrOTOP1 A274W
Format: cell-based, zebrafish (Danio rerio)
Source text: We next tested mutations of the central site (L205W, A274W, F277A, E384A L385W, A388W). V201W and S389W, two additional central site mutations, were excluded from the study due to complete loss of channel activity. Mutation of E384 to alanine is expected to disrupt potential hydrogen bonding with C2.2. Of note, E384 is one of the few charged residues in the central pocket and could form a salt bridge with K281, that could also be affected by the mutation. Additionally, in our DrOTOP1_C2.2 structure, we observed that F277 underwent a substantial rearrangement, likely to avoid steric clash and accommodate C2.2 binding. Thus, we introduced the F277A mutation to test if removing this steric clash would enhance C2.2 inhibition.
HEK-293 cells (CRL-1573, ATCC) were cultured in DMEM (Thermofisher 11995073) containing 10% fetal bovine serum (Life Technology 16000044) and Penicillin-Streptomycin (100 I.U./mL) and (100 µg/mL), respectively. Cells were transfected with WT DrOTOP1 or mutant DrOTOP1 channels in 35 mm petri dishes, with ~ 500 ng DNA and 2 μL TransIT-LT1 transfection reagent (Mirus Bio Corporation, Cat # MIR2300) following the manufacturer’s protocol. All constructs were subcloned into a pcDNA3.1 vector that adds an N-terminal fusion tag consisting of an octahistidine tag followed by eGFP, a Gly-Thr-Gly-Thr linker and a 3C protease cleavage site ([…]) followed by WT DrOTOP1, WT mOTOP1, WT hOTOP1, or mutated DrOTOP1. Point mutations were generated via In-Fusion Cloning (Takara) using single-stranded DNA primers generated through IDT and sequence confirmed by Sanger sequencing (GeneWiz).
Whole-cell patch-clamp recording was performed as previously described[6],[22],[25]. Recordings were made with an Axopatch 200B amplifier, digitized with a Digidata 1322a 16-bit data acquisition system, acquired with pClamp 8.2 and analyzed with Clampfit 10 (Molecular Devices). Recordings were sampled at 5 kHz and filtered at 1 kHz. Patch Pipettes with resistance of […] were fabricated from borosilicate glass, and only recordings with a giga-Ohm seal were used in analysis. Membrane potential was held at −80 mV for the duration of recordings. At the beginning of recordings and between, cells were washed with Tyrode’s solution (see below). Once a giga-Ohm seal was reached, cells were lifted and placed in front of microcapillary tubes controlled by a Fast-Step perfusion system (Warner Instruments) so that extracellular solutions could be rapidly exchanged during each experiment.
Standard Tyrode’s solution consisted of 145 mM NaCl, 5 mM KCl, MgCl2, 2 mM CaCl2, 20 mM D-Glucose, and 10 mM HEPES (for pH 7.4). All other extracellular patch-clamp solutions contained 160 mM NMDG-Cl, 2 mM CaCl2, and the following buffers: 10 mM HEPES (for pH 7.4), 10 mM MES (for pH 6.5-5.5), 10 mM CHES for pH 10, and 10 mM HomoPIPES for (pH 5.0). pH adjusted with HCl. When adding compounds to extracellular solutions, the concentration of DMSO in solution was never higher than 0.3%. […]
All data are presented as mean ± SEM unless otherwise noted, and each data point represents an independent replicant. Inhibition of compounds was quantified as ((I2peak-I1)/(I2peak))*100, where I1 is the current immediately before wash-off and I2peak is the maximum recovered current (Supplementary Fig. 2). Hill coefficients were determined by the following equation: Y = Bmax*X^h/(Kd^h + X^h). […]

C=C(C)COc1ccccc1NC(=O)c1nc[nH]c1C [C2.2]
inhibition at 10 µM (10 µM, single cells or mean): 74.6%
Inhibition of currents (10 µM, single cells or mean, mean): 72.36%
Inhibition of currents (10 µM, single cells or mean, single cells): 71.3399% and 74.8032% and 68.9769% and 72.0779%

O=C(/C(=N\O)c1ccccc1)c1ccccc1 [C11, benzil monoxime]
Inhibition of currents (100 µM, single cells): 70.9091% and 73.0647% and 75.9259% and 71.7822%
inhibition at 100 µM (100 µM, single cells): 76.2%
